We go through 15 molecules from patent US9018214B2, “Bicyclic heterocycle compounds and their uses in therapy” (Astex Therapeutics Limited, priority 2011, dated 2015).

Test [1] has as its target BIR3 domain of human cIAP-1 (residues 267-363) (Homo sapiens (Human), UniProt Q13490). Description: cIAP-1 in vitro competitive displacement binding assay (fluorescence polarization; Probe A AVPIK(5&6FAM)-amide or Probe B AbuRPFK(5&6FAM)-amide). Particulars: for inhibition at 0.01 µM / inhibition at […]: 3 h, read-out: IC50 or PI cIAP1: PI. (In fluorescence polarisation assays a small probe gives low polarisation when free and higher when bound to something large.)

For test [2], the target named is BIR3 domain of human XIAP (residues 252-350) (Homo sapiens (Human), UniProt P98170). Nature of the test: XIAP in vitro competitive displacement binding assay (fluorescence polarization). To be noted: for pIC50: read-out: IC50 or PI Xiap: IC50; for inhibition at 0.04 µM: 1 h, read-out: IC50 or PI Xiap: PI.
Test [3] relates to EVSA-T (human breast carcinoma). Description: Anti-proliferative activity, Alamar Blue assay, EVSA-T. The format is cell-based. Particulars: Homo sapiens, EVSA-T. A general note: The colour change of resazurin is a common sign of viable cells or microbes.
Where [4] appears, read: 72 hours, Alamar Blue, read-out: EVSA-T prolif (EC50).
Setting [5] is: Probe B AbuRPFK(5&6FAM)-amide, read-out: IC50 or PI cIAP1: IC50.
The mark [6] stands for this setting: read-out: IC50 or PI cIAP1: IC50.
Setting [7] is: 72 h, read-out: EVSA-T prolif (EC50).

pEC50, pIC50: −log10 of the molar value. Where a name gives a salt, the structure may show the parent alone. Read-outs that look alike come from different tables or passages of the source. Some results are limits rather than exact numbers.

In general, pIC50 refers to −log10 of the IC50, conventionally taken in molar units. A word on the pEC50: it is the negative decadic logarithm of the EC50, by convention in mol/L. As to `C[C@@H]1CN(CC(=O)N2CC(C)(C)c3ccc(Cc4ccccc4)cc32)[C@@H](C(=O)N2CCOCC2)CN1` [Example 111, 1-(6-Benzyl-3,3-dimethyl-2,3-dihydro-indol-1-yl)-2-[(2R,5R)-5-methyl-2-(morpholine-4-carbonyl)-piperazin-1-yl]-ethanone, hydrochloride salt], the inhibition at 0.01 µM in test [1] (Probe B, @ 0.01 μM) is 63%. The pIC50 in test [2] is 7.13. The pEC50 in test [3] (setting [4]) was 7.15.
`C[C@@H]1CN(CC(=O)N2C[C@@](C)(c3ccccc3)c3ccc(C#N)cc32)[C@@H](C(=O)N2CCOCC2)CN1` [Example 152, (3S)-3-Methyl-1-{2-[(2R,5R)-5-methyl-2-[(morpholin-4-yl)carbonyl]piperazin-1-yl]acetyl}-3-phenyl-2,3-dihydro-1H-indole-6-carbonitrile]: the pIC50 in test [1] (setting [5]) was 6.96; in test [2], 7.19. For the same molecule, the negative-log EC50 (pEC50) in test [3] (setting [4]) was 5.43.
For `CC(=O)NC[C@H]1CN[C@H](C)CN1CC(=O)N1CC(C)(C)c2ccc(Cl)cc21` [Example 45, N-{(2R,5R)-1-[2-(6-Chloro-3,3-dimethyl-2,3-dihydro-indol-1-yl)-2-oxo-ethyl]-5-methyl-piperazin-2-ylmethyl}-acetamide hydrochloride salt] the same measures were 6.24, 5.96 and 5.28.
For `C[C@@H]1CN(CC(=O)N2CC(C)(C)c3ccc(S(=O)(=O)c4ccccc4)cc32)CCN1` [Example 43, 1-(6-Benzenesulfonyl-3,3-dimethyl-2,3-dihydro-indol-1-yl)-2-((R)-3-methyl-piperazin-1-yl)-ethanone hydrochloride salt], the pIC50 was 6.35 in test [1] (Probe A AVPIK(5&6FAM)-amide, read-out: IC50 or PI cIAP1: IC50) and 6.19 in test [2]. In test [3] (setting [4]), the pEC50 was 5.62.
`COC[C@H]1CN[C@H](C)CN1CC(=O)N1CC(C)(C)c2c[n+]([O-])c(Cc3ccc(F)cc3F)cc21` [Example 166, 6-[(2,4-Difluorophenyl)methyl]-1-{2-[(2R,5R)-2-(methoxymethyl)-5-methylpiperazin-1-yl]acetyl}-3,3-dimethyl-1H,2H,3H-1,5λ^5-pyrrolo[3,2-c][1λ^5]pyridin-5-one hydrochloride]: the inhibition at […] in test [1] (Probe B, @ 0.012 μM) stood at 76%. For the same molecule, in test [2], the pIC50 is 6.82. Further, the pEC50 in test [3] (setting [4]) was 6.89.
With `COC[C@H]1CN[C@H](C)CN1CC(=O)N1CC(C)(C)c2ccc(S(=O)(=O)N(C)C)cc21` [Example 68, 1-[2-((2R,5R)-2-Methoxymethyl-5-methyl-piperazin-1-yl)-acetyl]-3,3-dimethyl-2,3-dihydro-1H-indole-6-sulfonic acid dimethylamide dihydrochloride salt], the pIC50 in test [1] (setting [6]) is 5.92; in test [2], 6.64. Also, the pEC50 was above 5.00 in test [3] (72 h, read-out: EC50, inhibition of cell growth) and 5.19 in test [3] (setting [7]).
As for `COC[C@H]1CN[C@H](C)CN1CC(=O)N1CC(C)(C)c2cnc(C#N)cc21` [Example 103, 1-{2-[(2R,5R)-2-(Methoxymethyl)-5-methylpiperazin-1-yl]acetyl}-3,3-dimethyl-1H,2H,3H-pyrrolo[3,2-c]pyridine-6-carbonitrile], the pIC50 in test [1] was above 6.00; in test [1] (setting [6]), 6.06; in test [2], 6.38. For the same molecule, in test [3] (at 10 μM, read-out: EVSA-T prolif: % inhibition), the inhibition at 10 µM is 12%.
As for `C[C@@H]1CN(CC(=O)N2CC(C)(C)c3cnc(C(F)(F)c4ccccc4)cc32)[C@@H](C(=O)N(C)C)CN1` [Example 158, (2R,5R)-1-(2-{6-[Difluoro(phenyl)methyl]-3,3-dimethyl-1H,2H,3H-pyrrolo[3,2-c]pyridin-1-yl}-2-oxoethyl)-N,N,5-trimethylpiperazine-2-carboxamide dihydrochloride], the inhibition at 0.01 µM in test [1] was 51%. The pIC50 in test [2] is 7.31. Moreover, the pEC50 in test [3] (setting [7]) is 6.52.
`COC[C@H]1CN[C@H](C)CN1CC(=O)N1CC2(CN(C(C)=O)C2)c2ccc(Cc3ccccc3)cc21` [Example 76, 1-{1-Acetyl-6′-benzyl-1′,2′-dihydrospiro[azetidine-3,3′-indole]-1′-yl}-2-[(2R,5R)-2-(methoxymethyl)-5-methylpiperazin-1-yl]ethan-1-one hydrochloride salt]: the results for the pIC50 in test [1] (setting [5]) and in test [2] were 7.80 and 7.19, respectively. The pEC50 in test [3] (setting [4]) is 6.11.
`C[C@@H]1CN(CC(=O)N2CC(C)(C)c3ncc(Cc4ccccc4F)cc32)[C@@H](CN2CCCC2=O)CN1` [Example 249, 1-{[(2R,5R)-1-(2-{6-[(2-Fluorophenyl)methyl]-3,3-dimethyl-1H,2H,3H-pyrrolo[3,2-b]pyridin-1-yl}-2-oxoethyl)-5-methylpiperazin-2-yl]methyl}pyrrolidin-2-one hydrochloride]: the inhibition at […] in test [1] (Probe B, @ 0.012 μM) worked out at 90%. The inhibition at 0.04 µM in test [2] (@ 0.04 μM) came to 56%. Besides, the pEC50 in test [3] (setting [4]) was 8.00.
`C[C@@H]1CN(CC(=O)N2CC(C)(C)c3cnc(Oc4ccccc4Cl)cc32)[C@@H](Cn2cc(F)cn2)CN1` [Example 177, 1-[6-(2-Chlorophenoxy)-3,3-dimethyl-1H,2H,3H-pyrrolo[3,2-c]pyridin-1-yl]-2-[(2R,5R)-2-[(4-fluoro-1H-pyrazol-1-yl)methyl]-5-methylpiperazin-1-yl]ethan-1-one hydrochloride]: the pIC50 in test [1] was above 6.00; in test [1] (setting [5]), 7.74; in test [2], 7.31. Moreover, in test [3] (setting [4]), the pEC50 was 6.57.
In the case of `C[C@@H]1CN(CC(=O)N2CC(C)(C)c3cnc(Cc4ccc(F)cc4F)cc32)[C@@H](Cn2ccccc2=O)CN1` [Example 193, 1-{[(2R,5R)-1-(2-{6-[(2,4-Difluorophenyl)methyl]-3,3-dimethyl-1H,2H,3H-pyrrolo[3,2-c]pyridin-1-yl}-2-oxoethyl)-5-methylpiperazin-2-yl]methyl}-1,2-dihydropyridin-2-one dihydrochloride], the inhibition at […] in test [1] was 98%. The inhibition at 0.04 µM in test [2] is 44%. Besides, in test [3] (setting [4]), the pEC50 was 7.80.
On to `C[C@@H]1CN(CC(=O)N2CC(C)(C)c3cnc(C(F)(F)c4ccccc4)cc32)[C@@H](C(=O)N2CCOCC2)CN1` [Example 178, 1-{6-[Difluoro(phenyl)methyl]-3,3-dimethyl-1H,2H,3H-pyrrolo[3,2-c]pyridin-1-yl}-2-[(2R,5R)-5-methyl-2-[(morpholin-4-yl)carbonyl]piperazin-1-yl]ethan-1-one dihydrochloride], for which, in test [1], the inhibition at […] was determined as 60%. Besides, the inhibition at 0.04 µM in test [2] worked out at 50%. For the same molecule, the pEC50 in test [3] (setting [4]) was 7.17.
For `C[C@@H]1CN(CC(=O)N2CC(C)(C)c3ncc(C(F)(F)CC4CC4)cc32)[C@@H](CN2CCCC2=O)CN1` [Example 230, 1-{[(2R,5R)-1-{2-[6-(2-Cyclopropyl-1,1-difluoroethyl)-3,3-dimethyl-1H,2H,3H-pyrrolo[3,2-b]pyridin-1-yl]-2-oxoethyl}-5-methylpiperazin-2-yl]methyl}pyrrolidin-2-one formate] the same measures were 60%, 53% and 6.96.
As for `COC[C@H]1CN[C@H](C)CN1CC(=O)N1CC2(Cc3ccccc3C2)c2ccc(Cl)cc21` [Example 120, 1-{6′-Chloro-1,1′,2′,3-tetrahydrospiro[indene-2,3′-indole]-1′-yl}-2-[(2R,5R)-2-(methoxymethyl)-5-methylpiperazin-1-yl]ethan-1-one], the pIC50 was 6.77 in test [1] (setting [5]) and 6.59 in test [2]. For the same molecule, in test [3] (setting [4]), the pEC50 is 5.17.
